Measured values as given in ChEMBL document CHEMBL1201862, “PubChem BioAssay data set” (2004).
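Tested at 5 concentrations; 48 h exposure; 96-well plates; endpoints linearly interpolated, else capped at highest concentration. Abbreviation: GI50, concentration required for 50% inhibition of growth.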 The source made the active and inactive calls. Rule as the data show it: active = GI50 up to about 1.1 µM and inactive = higher.

Columns and labels:
Test in all cases: growth of human tumour cells (NCI), 48 h
786-0 = test system: 786-0
A549 = test system: A549
ACHN = test system: ACHN
BT-549 = test system: BT-549
CAKI-1 = test system: CAKI-1
CCRF-CEM = test system: CCRF-CEM
COLO 205 = test system: COLO 205
DU-145 = test system: DU-145
EKVX = test system: EKVX
HCT-116 = test system: HCT-116
HCT-15 = test system: HCT-15
HL-60 = test system: HL-60
HOP-62 = test system: HOP-62
HOP-92 = test system: HOP-92
HT-29 = test system: HT-29
Hs-578T = test system: Hs-578T
IGROV-1 = test system: IGROV-1
K562 = test system: K562
KM12 = test system: KM12
LOX IMVI = test system: LOX IMVI
M14 = test system: M14
MDA-MB-231 = test system: MDA-MB-231
MDA-MB-435 = test system: MDA-MB-435
MDA-N = test system: MDA-N
MOLT-4 = test system: MOLT-4
Malme-3M = test system: Malme-3M
NCI-H226 = test system: NCI-H226
NCI-H23 = test system: NCI-H23
NCI-H522 = test system: NCI-H522
NCI/ADR-RES = test system: NCI/ADR-RES
OVCAR-3 = test system: OVCAR-3
OVCAR-4 = test system: OVCAR-4
OVCAR-5 = test system: OVCAR-5
OVCAR-8 = test system: OVCAR-8
PC-3 = test system: PC-3
RPMI-8226 = test system: RPMI-8226
RXF 393 = test system: RXF 393
SF-268 = test system: SF-268
SF-295 = test system: SF-295
SK-MEL-28 = test system: SK-MEL-28
SK-MEL-2 = test system: SK-MEL-2
SK-MEL-5 = test system: SK-MEL-5
SK-OV-3 = test system: SK-OV-3
SN12C = test system: SN12C
SNB-19 = test system: SNB-19
SNB-75 = test system: SNB-75
SW-620 = test system: SW-620
T47D = test system: T47D
TK-10 = test system: TK-10
U-251 = test system: U-251
UACC-257 = test system: UACC-257
UACC-62 = test system: UACC-62
UO-31 = test system: UO-31
A498 = test system: A498
HCC 2998 = test system: HCC 2998
MCF7 = test system: MCF7
NCI-H460 = test system: NCI-H460
SF-539 = test system: SF-539

SMILES: Cc1ccccc1/N=N/c1c(O)ccc2ccccc12
- GI50 (786-0): 48.9 µM (inactive)
- GI50 (A549): 69.3 µM (inactive)
- GI50 (ACHN): > 100 µM (inactive)
- GI50 (BT-549): > 100 µM (inactive)
- GI50 (CAKI-1): > 100 µM (inactive)
- GI50 (CCRF-CEM): > 100 µM (inactive)
- GI50 (COLO 205): > 100 µM (inactive)
- GI50 (DU-145): > 100 µM (inactive)
- GI50 (EKVX): 47.6 µM (inactive)
- GI50 (HCT-116): 69.5 µM (inactive)
- GI50 (HCT-15): > 100 µM
- GI50 (HL-60): > 100 µM (inactive)
- GI50 (HOP-62): 48.1 µM (inactive)
- GI50 (HOP-92): > 100 µM (inactive)
- GI50 (HT-29): > 100 µM (inactive)
- GI50 (Hs-578T): 49.3 µM (inactive)
- GI50 (IGROV-1): 59.2 µM (inactive)
- GI50 (K562): > 100 µM (inactive)
- GI50 (KM12): 16.4 µM (inactive)
- GI50 (LOX IMVI): 40.5 µM (inactive)
- GI50 (M14): > 100 µM (inactive)
- GI50 (MDA-MB-231): > 100 µM (inactive)
- GI50 (MDA-MB-435): > 100 µM (inactive)
- GI50 (MDA-N): > 100 µM (inactive)
- GI50 (MOLT-4): > 100 µM (inactive)
- GI50 (Malme-3M): > 100 µM (inactive)
- GI50 (NCI-H226): > 100 µM (inactive)
- GI50 (NCI-H23): > 100 µM (inactive)
- GI50 (NCI-H522): > 100 µM (inactive)
- GI50 (NCI/ADR-RES): > 100 µM (inactive)
- GI50 (OVCAR-3): > 100 µM (inactive)
- GI50 (OVCAR-4): 70.5 µM (inactive)
- GI50 (OVCAR-5): > 100 µM (inactive)
- GI50 (OVCAR-8): > 100 µM (inactive)
- GI50 (PC-3): > 100 µM (inactive)
- GI50 (RPMI-8226): > 100 µM (inactive)
- GI50 (RXF 393): > 100 µM (inactive)
- GI50 (SF-268): 62.4 µM (inactive)
- GI50 (SF-295): 77.1 µM (inactive)
- GI50 (SK-MEL-28): > 100 µM (inactive)
- GI50 (SK-MEL-2): > 100 µM (inactive)
- GI50 (SK-MEL-5): > 100 µM (inactive)
- GI50 (SK-OV-3): > 100 µM (inactive)
- GI50 (SN12C): > 100 µM (inactive)
- GI50 (SNB-19): > 100 µM (inactive)
- GI50 (SNB-75): > 100 µM (inactive)
- GI50 (SW-620): > 100 µM (inactive)
- GI50 (T47D): 59.3 µM (inactive)
- GI50 (TK-10): > 100 µM (inactive)
- GI50 (U-251): 70.1 µM (inactive)
- GI50 (UACC-257): > 100 µM (inactive)
- GI50 (UACC-62): > 100 µM (inactive)
- GI50 (UO-31): > 100 µM (inactive)

SMILES: CC(C)=NNC1=NC(C)(C)P(=O)(NNc2ncccn2)S1 (configuration not stated)
- GI50 (786-0): > 100 µM (inactive)
- GI50 (A498): > 100 µM (inactive)
- GI50 (A549): > 100 µM (inactive)
- GI50 (ACHN): > 100 µM (inactive)
- GI50 (BT-549): > 100 µM (inactive)
- GI50 (CAKI-1): > 100 µM (inactive)
- GI50 (DU-145): > 100 µM (inactive)
- GI50 (EKVX): > 100 µM (inactive)
- GI50 (HCC 2998): > 100 µM (inactive)
- GI50 (HCT-116): > 100 µM (inactive)
- GI50 (HCT-15): > 100 µM
- GI50 (HOP-62): > 100 µM (inactive)
- GI50 (HOP-92): > 100 µM (inactive)
- GI50 (HT-29): > 100 µM (inactive)
- GI50 (Hs-578T): > 100 µM (inactive)
- GI50 (IGROV-1): > 100 µM (inactive)
- GI50 (K562): > 100 µM (inactive)
- GI50 (M14): > 100 µM (inactive)
- GI50 (MCF7): > 100 µM (inactive)
- GI50 (MDA-MB-231): > 100 µM (inactive)
- GI50 (MDA-MB-435): > 100 µM (inactive)
- GI50 (MDA-N): > 100 µM (inactive)
- GI50 (MOLT-4): > 100 µM (inactive)
- GI50 (NCI-H23): > 100 µM (inactive)
- GI50 (NCI-H460): > 100 µM (inactive)
- GI50 (NCI-H522): > 100 µM (inactive)
- GI50 (OVCAR-3): > 100 µM (inactive)
- GI50 (OVCAR-4): > 100 µM (inactive)
- GI50 (OVCAR-5): > 100 µM (inactive)
- GI50 (OVCAR-8): > 100 µM (inactive)
- GI50 (PC-3): > 100 µM (inactive)
- GI50 (RXF 393): > 100 µM (inactive)
- GI50 (SF-268): > 100 µM (inactive)
- GI50 (SF-295): > 100 µM (inactive)
- GI50 (SF-539): > 100 µM (inactive)
- GI50 (SK-MEL-28): > 100 µM (inactive)
- GI50 (SK-MEL-2): > 100 µM (inactive)
- GI50 (SK-MEL-5): > 100 µM (inactive)
- GI50 (SK-OV-3): > 100 µM (inactive)
- GI50 (SNB-19): > 100 µM (inactive)
- GI50 (SW-620): > 100 µM (inactive)
- GI50 (T47D): > 100 µM (inactive)
- GI50 (TK-10): > 100 µM (inactive)
- GI50 (U-251): > 100 µM (inactive)
- GI50 (UACC-257): > 100 µM (inactive)
- GI50 (UACC-62): > 100 µM (inactive)
- GI50 (UO-31): > 100 µM (inactive)

SMILES: Cc1cc2c([nH]c3ccccc32)c(O)c1-c1c(C)cc2c([nH]c3ccccc32)c1O
- GI50 (786-0): 13.7 µM (inactive)
- GI50 (A549): 12.1 µM (inactive)
- GI50 (ACHN): 14.3 µM (inactive)
- GI50 (BT-549): 18.8 µM (inactive)
- GI50 (DU-145): 13 µM (inactive)
- GI50 (EKVX): 13.8 µM (inactive)
- GI50 (HCC 2998): 10.6 µM (inactive)
- GI50 (HCT-116): 14.2 µM (inactive)
- GI50 (HOP-62): 17.1 µM (inactive)
- GI50 (HOP-92): 15.7 µM (inactive)
- GI50 (Hs-578T): 15.3 µM (inactive)
- GI50 (IGROV-1): 12.4 µM (inactive)
- GI50 (KM12): 10.1 µM (inactive)
- GI50 (LOX IMVI): 16.7 µM (inactive)
- GI50 (M14): 14.8 µM (inactive)
- GI50 (MDA-MB-231): 17.5 µM (inactive)
- GI50 (NCI-H226): 18.5 µM (inactive)
- GI50 (NCI-H460): 4.57 µM (inactive)
- GI50 (NCI-H522): 16.7 µM (inactive)
- GI50 (NCI/ADR-RES): 13.9 µM (inactive)
- GI50 (OVCAR-3): 15.8 µM (inactive)
- GI50 (OVCAR-4): 15.3 µM (inactive)
- GI50 (OVCAR-8): 15.7 µM (inactive)
- GI50 (PC-3): 13.2 µM (inactive)
- GI50 (RXF 393): 10.5 µM (inactive)
- GI50 (SF-268): 13.8 µM (inactive)
- GI50 (SF-539): 17 µM (inactive)
- GI50 (SK-MEL-28): 30.5 µM (inactive)
- GI50 (SK-MEL-2): 15.8 µM (inactive)
- GI50 (SN12C): 2.48 µM (inactive)
- GI50 (SNB-19): 16.9 µM (inactive)
- GI50 (SNB-75): 14 µM (inactive)
- GI50 (SW-620): 22.9 µM (inactive)
- GI50 (T47D): 15.5 µM (inactive)
- GI50 (TK-10): 17.4 µM (inactive)
- GI50 (U-251): 11.5 µM (inactive)
- GI50 (UACC-257): 16.5 µM (inactive)
